The record followed here is patent US7745390B2, “Antimicrobial peptides” (priority 2005, dated 2010).

Square brackets hold non-standard residues; d marks the D form. Ends that are not written are not given here. Peptide text beside a SMILES is read from it. Bounds are passed on as bounds.

One test has as its system Salmonella. The test is classed as cell-based, S. typhimurium. As to conditions: pH 7.2. The method in brief: (§1)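 Single-well growth assay: peptide + bacteria (~5×10^6 CFU/ml) in 10 mM phosphate pH 7.2/0.03% LB, 3 h 37 °C; add LB, overnight; OD600. MIC = lowest conc., no growth; IC50 = 50% growth vs medium.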
Another test concerns E. coli DH5a. In kind it is cell-based. As to conditions: DH5a, pH 7.2. The method in brief:
as §1

Another test relates to B. cereus. The test is classed as cell-based. The conditions noted are these: pH 7.2. In short, it runs like this: as §1

RRVSRRFMRRYQSRVPQGLV [Peptide G12.10]: in the test with Salmonella, the IC50 came to 0.85 µM and the “Salmonella MIC” value came to 1.4 µM. In addition, in the test on E. coli DH5a, the “E. coli DH5a MIC” value came to 0.7 µM and the IC50 was determined as 0.45 µM. Further, in the test with B. cereus, the “B. cereus MIC” value came out at 1.4 µM and the IC50 was 0.89 µM.

Consider “FDTPRRVSRRFMRRLGH [Peptide G11.43, FDTPRRVSRRFMRRLGH]”, for which, in the test on Salmonella, it took 3 µM to reach half-maximal inhibition (IC50) and the “Salmonella MIC” value is more than 10 µM. Further, in the test with E. coli DH5a, the “E. coli DH5a MIC” value is 0.75 µM and the IC50 was 0.42 µM. In the test with B. cereus, the “B. cereus MIC” value came out at 0.75 µM and the IC50 was 0.21 µM.

Regarding “RRVSRRFMRRSGSGSGSGQQMVQQSGQQFS [Peptide G11.40]”, in the test with Salmonella, the IC50 was more than 10 µM and the “Salmonella MIC” value was more than 10 µM. In addition, in the test with E. coli DH5a, the “E. coli DH5a MIC” value was more than 10 µM and inhibition was half-maximal at 3.28 µM (IC50). Besides, in the test on B. cereus, the “B. cereus MIC” value was more than 10 µM and the IC50 was more than 10 µM.

“QRSVSRAATRVSRTGRSRWRDVSRNFMRR [Peptide G8.2]”: in the test on Salmonella, the IC50 turned out to be 0.55 µM and the “Salmonella MIC” value was 1.4 µM. Further, in the test with E. coli DH5a, the “E. coli DH5a MIC” value came out at 1.4 µM and inhibition was half-maximal at 0.58 µM (IC50). In the test on B. cereus, the “B. cereus MIC” value amounted to 1.39 µM and the IC50 was 0.51 µM.

Consider “VHKRRVSRRFMRRLGH [Peptide G11.42, VHKRRVSRRFMRRLGH]”, for which, in the test on Salmonella, the IC50 was 1.35 µM and the “Salmonella MIC” value turned out to be 2.8 µM. Also, in the test with E. coli DH5a, the “E. coli DH5a MIC” value is 0.35 µM and half-maximal inhibition (IC50) was put at 0.21 µM. For the same compound, in the test with B. cereus, the “B. cereus MIC” value was 0.4 µM and the IC50 was 0.11 µM.

For the compound “WRDVSRNFMRRGRSRGWRDVSRNFMRR [Peptide G11.36]”, in the test with Salmonella, the IC50 was 0.89 µM and the “Salmonella MIC” value stood at 1.38 µM. Also, in the test with E. coli DH5a, the “E. coli DH5a MIC” value turned out to be 0.7 µM and the IC50 is 0.45 µM. Besides, in the test with B. cereus, the “B. cereus MIC” value was determined as 0.7 µM and it took 0.41 µM to reach half-maximal inhibition (IC50).

For RRVSRRFMRRYRSRVIRGLV [Peptide G12.7], in the test on Salmonella, the IC50 turned out to be 0.22 µM and the “Salmonella MIC” value came out at 0.35 µM. Moreover, in the test on E. coli DH5a, the “E. coli DH5a MIC” value is 0.71 µM and the IC50 amounted to 0.25 µM. Besides, in the test on B. cereus, the “B. cereus MIC” value stood at 0.35 µM and the IC50 is 0.21 µM.

Consider `CSCC[C@@H](NC(=O)[C@H]1CCCN1C(=O)[C@@H](CCCCN)NC(=O)[C@@H](CCCCN)NC(=O)[C@@H](CO)NC(=O)[C@H](NC(=O)[C@@H](CCCCN)NC(=O)[C@@H](CCCCN)NC(=O)[C@@H](CCCCN)NC(=O)[C@@H](CCCCN)NC(=O)[C@@H](CCCCN)NC(=O)[C@@H](CCCCN)NC(=O)[C@H](N)CCCCN)C(C)C)C(=O)N[C@H](CCCCN)C(=O)N[C@H](CCCCN)C(=O)N[C@H](Cc1ccc(O)cc1)C(=O)N[C@H](CCCCN)C(=O)N[C@H](CO)C(=O)N[C@H](CCCCN)C(=O)N[C@H](CCCCN)C(=O)N1CCC[C@@H]1C(=O)N[C@H](CCCCN)C(=O)N[C@H](CCCCN)C(=O)N[C@H](CC(C)C)C(=O)N[C@@H](C(=O)O)C(C)C` [Peptide G12.29, kkkkkkkvskkpmkkykskkpkklv] (H-[dK][dK][dK][dK][dK][dK][dK][dV][dS][dK][dK][dP][dM][dK][dK][dY][dK][dS][dK][dK][dP][dK][dK][dL][dV]-OH; N-terminus and C-terminus assumed), for which, in the test on Salmonella, 0.28 µM corresponded to half-maximal inhibition (IC50) and the “Salmonella MIC” value stood at 1.15 µM. For the same compound, in the test with E. coli DH5a, the “E. coli DH5a MIC” value amounted to 0.15 µM and half-maximal inhibition (IC50) required 0.1 µM. In the test with B. cereus, the “B. cereus MIC” value amounted to 0.35 µM and the IC50 worked out at 0.21 µM.

With `CSCC[C@H](NC(=O)[C@H](Cc1ccccc1)NC(=O)[C@H](CCCCN)NC(=O)[C@H](CCCCN)NC(=O)[C@H](CO)NC(=O)[C@@H](NC(=O)[C@H](CCCCN)NC(=O)[C@H](CCCCN)NC(=O)[C@H](CO)NC(=O)CNC(=O)[C@H](CCCCN)NC(=O)[C@H](CCCCN)NC(=O)[C@H](CCSC)NC(=O)[C@H](Cc1ccccc1)NC(=O)[C@H](CCCCN)NC(=O)[C@H](CCCCN)NC(=O)[C@H](CO)NC(=O)[C@@H](NC(=O)[C@H](CCCCN)NC(=O)[C@@H](N)CCCCN)C(C)C)C(C)C)C(=O)N[C@@H](CCCCN)C(=O)N[C@@H](CCCCN)C(=O)O` [Peptide G11.15], in the test with Salmonella, 0.41 µM corresponded to half-maximal inhibition (IC50) and the “Salmonella MIC” value stood at 0.7 µM. In addition, in the test with E. coli DH5a, the “E. coli DH5a MIC” value is 1.38 µM and the IC50 was found to be 0.8 µM. In the test on B. cereus, the “B. cereus MIC” value is more than 10 µM and the IC50 came to 5.85 µM.

On to “GRSLWRDVSRNFMRR [Peptide G14.13, GRSLWRDVSRNFMRR]”, for which, in the test with Salmonella, the midpoint of inhibition, the IC50, lay at 7.6 µM and the “Salmonella MIC” value is more than 10 µM. Besides, in the test with E. coli DH5a, the “E. coli DH5a MIC” value amounted to 5.6 µM and the IC50 was 1.85 µM. For the same compound, in the test with B. cereus, the “B. cereus MIC” value was more than 10 µM and the IC50 was more than 10 µM.

For the compound “QRSVSRAATRVSRTGRSRW [Peptide G13.2, QRSVSRAATRVSRTGRSRW]”, in the test with Salmonella, the IC50 amounted to 7.3 µM and the “Salmonella MIC” value is more than 10 µM. For the same compound, in the test on E. coli DH5a, the “E. coli DH5a MIC” value is 1.37 µM and the IC50 amounted to 0.85 µM. Also, in the test with B. cereus, the “B. cereus MIC” value was found to be 5.6 µM and the IC50 was 3.4 µM.

For the compound RRPSRRFPRR [Peptide G11.37, RRPSRRFPRR], in the test with Salmonella, inhibition was half-maximal at 1.68 µM (IC50) and the “Salmonella MIC” value was 2.9 µM. In addition, in the test on E. coli DH5a, the “E. coli DH5a MIC” value was 2.4 µM and the IC50 was 0.45 µM. Further, in the test with B. cereus, the “B. cereus MIC” value is more than 10 µM and the IC50 is more than 10 µM.

As for “RDVSRRFMRRQSRVIQGLV [Peptide G12.3, RDVSRRFMRRQSRVIQGLV]”, in the test on Salmonella, the IC50 was 3.5 µM and the “Salmonella MIC” value amounted to 5.5 µM. Moreover, in the test with E. coli DH5a, the “E. coli DH5a MIC” value amounted to 5.7 µM and 3.51 µM corresponded to half-maximal inhibition (IC50). Moreover, in the test on B. cereus, the “B. cereus MIC” value is more than 10 µM and the IC50 turned out to be 7.7 µM.

Take RRVSRRFMRR [Peptide G11.44, RRVSRRFMRR]: in the test on Salmonella, the IC50 is 3.15 µM and the “Salmonella MIC” value was 5.75 µM. In the test on E. coli DH5a, the “E. coli DH5a MIC” value came out at 0.38 µM and the IC50 stood at 0.21 µM. In addition, in the test on B. cereus, the “B. cereus MIC” value was more than 10 µM and the half-maximal inhibitory concentration (IC50) amounted to 7.7 µM.

As a reminder, the IC50 is the point on the concentration scale where inhibition reaches its midpoint.
